Target: T1, human OX2 receptor (Homo sapiens, UniProt O43614)
T1 construct: expressed in transfected cells
T1 sequence (O43614 1-444): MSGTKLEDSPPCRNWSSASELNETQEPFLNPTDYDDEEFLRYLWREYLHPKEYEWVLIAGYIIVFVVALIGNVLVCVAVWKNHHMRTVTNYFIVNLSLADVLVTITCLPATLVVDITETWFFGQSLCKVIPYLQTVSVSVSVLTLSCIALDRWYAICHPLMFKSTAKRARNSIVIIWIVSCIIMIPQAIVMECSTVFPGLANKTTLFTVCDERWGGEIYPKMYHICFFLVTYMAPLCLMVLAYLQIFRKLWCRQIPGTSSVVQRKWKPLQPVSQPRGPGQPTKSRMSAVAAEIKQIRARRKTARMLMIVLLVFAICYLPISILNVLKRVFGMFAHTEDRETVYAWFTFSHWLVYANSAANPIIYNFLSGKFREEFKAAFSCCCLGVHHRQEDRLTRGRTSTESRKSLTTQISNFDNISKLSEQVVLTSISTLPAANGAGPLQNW
Experiment: Measurement of orexin type 2 receptor agonist activity (calcium fluorescence, Fluo-4 AM, FDSS)
Type: cell-based
Conditions: compound at 3 μM; CHO cells forcibly expressing human OX2 receptor; DMSO = 0%, 10 nM orexin A (human) = 100%
Description: In order to obtain cell clones that stably express human orexin type 2 receptor, human orexin type 2 (residues 1-444, NCBI Reference Sequence: AK314279) was constructed in a pcDNA3.1 (+) vector (Invitrogen) to express in mammalian cells. This plasmid DNA was transfected into CHO-K1 cells by electroporation, and stable clones were obtained by limiting dilution using resistance to G418 as a selection marker.
CHO cells in which human OX2 receptor was forcibly expressed were seeded at 10,000 cells/well into a 384-well black transparent bottom plate (BD falcon), and were incubated at 37° C., 5% CO2 for 1 day after incubation at room temperature for 30 minutes. After removing the cell plate medium, assay buffer containing calcium indicator A (HBSS (Thermo Fisher Scientific), 20 mM HEPES (Thermo Fisher Scientific), 0.1% BSA (Sigma-Aldrich), 2.5 μg/mL Fluo-4 AM (Dojin Kagaku), 0.08% Pluronic F127 (Dojin Kagaku), 1.25 mM probenecid (Dojin Kagaku)) was added at 30 μL/well. After incubation in a 5% CO2 incubator at 37° C. for 30 minutes, it was incubated at room temperature for another 30 minutes. Add 10 μL/well of the test compound diluted with assay buffer B (HBSS, 20 mM HEPES, 0.1% BSA), and use FDSS uCELL (Hamamatsu Photonics) to measure the fluorescence value every 1 second for 1 minute, and then every 2 seconds for […]. It was measured for 1 minute and 40 seconds. The amount of fluorescence value when DMSO is added instead of the test compound is defined as 0%, and the amount of fluorescence value when orexin A (human) (Peptide Institute) with a final concentration of 10 nM is added is defined as 100%. The activity (%) of the test compound was calculated.

OX2R agonist activity (3 μM, %) [%] | Compound
102 | Cc1cnc(C2(C)CC(N3C[C@@H](NS(C)(=O)=O)C(F)(F)C3)=NO2)c(-c2c(F)cc(F)cc2F)c1 (stereo partly drawn) [Example 10, N-[(3R)-4,4-difluoro-1-{5-methyl-5-[5-methyl-3-(2,4,6-trifluorophenyl)pyridin-2-yl]-4,5-dihydro-1,2-oxazol-3-yl}pyrrolidin-3-yl]methanesulfonamide]
99 | Cc1cnc(C2(CO)CC(N3C[C@@H](NS(C)(=O)=O)C(F)(F)C3)=NO2)c(-c2c(F)cc(F)cc2F)c1 (stereo partly drawn) [Example 16, N-[(3R)-4,4-difluoro-1-{5-(hydroxymethyl)-5-[5-methyl-3-(2,4,6-trifluorophenyl)pyridin-2-yl]-4,5-dihydro-1,2-oxazol-3-yl}pyrrolidin-3-yl]methanesulfonamide]
80 | Cc1cnc(C2CC(N3CC(F)(F)C3CNS(C)(=O)=O)=NO2)c(-c2c(F)cc(F)cc2F)c1 (stereo not shown) [Example 17, N-[(3,3-difluoro-1-{5-[5-methyl-3-(2,4,6-trifluorophenyl)pyridin-2-yl]-4,5-dihydro-1,2-oxazol-3-yl}azetidin-2-yl)methyl]methanesulfonamide]
103 | CS(=O)(=O)N[C@@H]1CN(C2=NOC(c3ncc(C4CC4)cc3-c3c(F)cc(F)cc3F)C2)CC1(F)F (stereo partly drawn) [Example 18, N-[(3R)-1-{5-[5-cyclopropyl-3-(2,4,6-trifluorophenyl)pyridin-2-yl]-4,5-dihydro-1,2-oxazol-3-yl}-4,4-difluoropyrrolidin-3-yl]methanesulfonamide]
92 | Cc1cnc(C2CC([C@@H]3CC[C@H](NS(C)(=O)=O)C3)=NO2)c(-c2c(F)cc(F)cc2F)c1 (stereo partly drawn) [Example 19, N-[(1S,3R)-3-{5-[5-methyl-3-(2,4,6-trifluorophenyl)pyridin-2-yl]-4,5-dihydro-1,2-oxazol-3-yl}cyclopentyl]methanesulfonamide]
100 | Cc1cnc(C2CC(N3C[C@@H](NS(C)(=O)=O)C(F)(F)C3)=NO2)c(-c2c(F)cccc2F)c1 (stereo partly drawn) [Example 21, N-[(3R)-1-{5-[3-(2,6-difluorophenyl)-5-methylpyridin-2-yl]-4,5-dihydro-1,2-oxazol-3-yl}-4,4-difluoropyrrolidin-3-yl]methanesulfonamide]
102 | CCS(=O)(=O)N[C@@H]1CN(C2=NO[C@H](c3ncc(C)cc3-c3c(F)cccc3F)C2)CC1(F)F [Example 22, N-[(3R)-1-{(5S)-5-[3-(2,6-difluorophenyl)-5-methylpyridin-2-yl]-4,5-dihydro-1,2-oxazol-3-yl}-4,4-difluoropyrrolidin-3-yl]ethanesulfonamide]
42 | Cc1cnc(C2CC(C3CC(NS(C)(=O)=O)C3)=NO2)c(-c2c(F)cc(F)cc2F)c1 (stereo not shown) [Example 23, N-[(1s,3s)-3-{5-[5-methyl-3-(2,4,6-trifluorophenyl)pyridin-2-yl]-4,5-dihydro-1,2-oxazol-3-yl}cyclobutyl]methanesulfonamide]
20 | Cc1cnc(C2CC([C@H]3CC[C@@H](NS(C)(=O)=O)CC3)=NO2)c(-c2c(F)cc(F)cc2F)c1 (stereo partly shown) [Example 24, N-[(1s,4s)-4-{5-[5-methyl-3-(2,4,6-trifluorophenyl)pyridin-2-yl]-4,5-dihydro-1,2-oxazol-3-yl}cyclohexyl]methanesulfonamide]
88 | Cc1cnc(C2CC([C@H]3CC[C@H](NS(C)(=O)=O)C3)=NO2)c(-c2c(F)cc(F)cc2F)c1 (stereo partly drawn) [Example 25, N-[(1S,3S)-3-{5-[5-methyl-3-(2,4,6-trifluorophenyl)pyridin-2-yl]-4,5-dihydro-1,2-oxazol-3-yl}cyclopentyl]methanesulfonamide]
93 | Cc1cnc(C2CC(N3CC[C@@H](NS(C)(=O)=O)C(F)(F)CC3)=NO2)c(-c2c(F)cccc2F)c1 (stereo partly drawn) [Example 28, N-[(4R)-1-{5-[3-(2,6-difluorophenyl)-5-methylpyridin-2-yl]-4,5-dihydro-1,2-oxazol-3-yl}-5,5-difluoroazepan-4-yl]methanesulfonamide]
104 | Cc1cnc([C@@H]2CC(N3C[C@@H](NS(=O)(=O)C(F)F)C(F)(F)C3)=NO2)c(-c2c(F)cccc2F)c1 [Example 31, N-[(3R)-1-{(5S)-5-[3-(2,6-difluorophenyl)-5-methylpyridin-2-yl]-4,5-dihydro-1,2-oxazol-3-yl}-4,4-difluoropyrrolidin-3-yl]-1,1-difluoromethanesulfonamide]

Second part, the compound before the results:

Compound | OX2R agonist activity (3 μM, %) [%]
Cc1cn(-c2c(F)cccc2F)c(C2(C)CC(N3C[C@@H](NS(C)(=O)=O)C(F)(F)C3)=NO2)n1 (stereo partly drawn) [Example 12, N-[(3R)-1-{5-[1-(2,6-difluorophenyl)-4-methyl-1H-imidazol-2-yl]-5-methyl-4,5-dihydro-1,2-oxazol-3-yl}-4,4-difluoropyrrolidin-3-yl]methanesulfonamide] | 71
CCS(=O)(=O)N[C@@H]1CN(C2=NOC(c3ncc(C)cc3-c3c(F)cc(F)cc3F)(C(F)F)C2)CC1(F)F (stereo partly drawn) [Example 13, N-[(3R)-1-{5-(difluoromethyl)-5-[5-methyl-3-(2,4,6-trifluorophenyl)pyridin-2-yl]-4,5-dihydro-1,2-oxazol-3-yl}-4,4-difluoropyrrolidin-3-yl]ethanesulfonamide] | 107
Cc1cnc(C2(C(F)F)CC(N3C[C@@H](NS(C)(=O)=O)C(F)(F)C3)=NO2)c(-c2c(F)cc(F)cc2F)c1 (stereo partly drawn) [Example 14, N-[(3R)-1-{5-(difluoromethyl)-5-[5-methyl-3-(2,4,6-trifluorophenyl)pyridin-2-yl]-4,5-dihydro-1,2-oxazol-3-yl}-4,4-difluoropyrrolidin-3-yl]methanesulfonamide] | 106
CS(=O)(=O)N[C@@H]1CN(C2=NOC(CO)(c3ncc(F)cc3-c3c(F)cc(F)cc3F)C2)CC1(F)F (stereo partly drawn) [Example 15, N-[(3R)-4,4-difluoro-1-{5-[5-fluoro-3-(2,4,6-trifluorophenyl)pyridin-2-yl]-5-(hydroxymethyl)-4,5-dihydro-1,2-oxazol-3-yl}pyrrolidin-3-yl]methanesulfonamide] | 92
Cc1cnc(C2CC(O[C@H]3C[C@@H](NS(C)(=O)=O)C3)=NO2)c(-c2c(F)cccc2F)c1 (stereo partly shown) [Example 20, N-[(1s,3s)-3-({5-[3-(2,6-difluorophenyl)-5-methylpyridin-2-yl]-4,5-dihydro-1,2-oxazol-3-yl}oxy)cyclobutyl]methanesulfonamide] | 65
CCS(=O)(=O)NC[C@@H]1CCCN1C1=NOC(c2ncc(C)cc2-c2c(F)cccc2F)C1 (stereo partly drawn) [Example 26, N-{[(2S)-1-{5-[3-(2,6-difluorophenyl)-5-methylpyridin-2-yl]-4,5-dihydro-1,2-oxazol-3-yl}pyrrolidin-2-yl]methyl}ethanesulfonamide] | 42
Cc1cnc(C2CC(N(C)[C@H]3C[C@@H](NS(C)(=O)=O)C3)=NO2)c(-c2c(F)cccc2F)c1 (stereo partly shown) [Example 27, N-{(1s,3s)-3-[{5-[3-(2,6-difluorophenyl)-5-methylpyridin-2-yl]-4,5-dihydro-1,2-oxazol-3-yl}(methyl)amino]cyclobutyl}methanesulfonamide] | 77
Cc1cnc([C@@H]2CC(N3CC[C@H](NS(C)(=O)=O)C3)=NO2)c(-c2c(F)cccc2F)c1 [Example 29, N-[(3S)-1-{(5S)-5-[3-(2,6-difluorophenyl)-5-methylpyridin-2-yl]-4,5-dihydro-1,2-oxazol-3-yl}pyrrolidin-3-yl]methanesulfonamide] | 96
Cc1cnc([C@@H]2CC(N3CC[C@H](NS(=O)(=O)C4(F)CC4)C3)=NO2)c(-c2c(F)cccc2F)c1 [Example 30, N-[(3S)-1-{(5S)-5-[3-(2,6-difluorophenyl)-5-methylpyridin-2-yl]-4,5-dihydro-1,2-oxazol-3-yl}pyrrolidin-3-yl]-1-fluorocyclopropane-1-sulfonamide] | 104
Cc1cnc([C@@H]2CC(N3C[C@H](F)[C@H](NS(C)(=O)=O)C3)=NO2)c(-c2c(F)cccc2F)c1 [Example 32, N-[(3R,4S)-1-{(5S)-5-[3-(2,6-difluorophenyl)-5-methylpyridin-2-yl]-4,5-dihydro-1,2-oxazol-3-yl}-4-fluoropyrrolidin-3-yl]methanesulfonamide] | 98

Source: patent publication US20240217957A1, “HETEROCYCLIC COMPOUND AND USE THEREOF” (TAKEDA PHARMACEUTICAL COMPANY LIMITED, priority 2022, published 2024)
